These results are taken from article PMC5026167, “Characterizing Active Site Conformational Heterogeneity along the Trajectory of an Enzymatic Phosphoryl Transfer Reaction” (Angewandte Chemie (International Ed. in English), 2016).

Each structure is given as a SMILES string. Like-named read-outs stand apart in the source and are kept apart here.

Experiment [1] concerns the target T1, UmpK (UMP/CMP kinase) (Dictyostelium discoideum, UniProt P20425).
T1 construct: gene pyrK; recombinant, expressed and purified as in Supporting Information; details not in main text
Description: stopped-flow nucleotide exchange with MANT-AP5A-MANT. The format is binding. The note with it: dissociation rate of ADP and UMP together, no metal fluoride.

In experiment [2] the target is T1, UmpK (UMP/CMP kinase). Description: biochemical. Details: fluorescence titration, equilibrium binding / displacement of fluorescent MANT-ADP. From the text: First, we defined and characterized stable states along the reaction coordinate (Supporting Information). One reference state is nucleotide‐free (apo) UmpK (Figure 1 a), where the catalytic side‐chains are expected to be very flexible because of the absence of any ligand, thus giving an indication of the upper limit of conformational entropy. An ideal reference for a substrate/product‐bound state is provided by UmpK in complex with the bi‐substrate inhibitor AP5U (Supporting Information; Figure 1 b), where a phosphate group covalently links ATP and UMP such that nucleotide‐like binding occurs but without turnover.11 The overall structure of UmpK in complex with AP5U is essentially identical to other nucleotide‐bound structures available (Figure 1 b). Despite minor differences in the lid loop conformation and the aliphatic part of the R137 side‐chain, the position of the central guanidino groups is nearly identical. […] The transition state of the phosphoryl transfer reaction is well‐represented by UmpK in complex with the TSA formed by ADP, UMP/CMP and an AlFx molecule that mimics the phosphoryl group being transferred (Figure 1 c).7 To further confirm the formation of a stable complex that captures the transition state structure, we performed functional studies including nucleotide exchange kinetics measurements in the presence and absence of aluminium fluoride (Figures 1 f and S1/S2, Table S1).  Figure 1 a) Nucleotide‐free UmpK (H. sapiens, PDB: 1TEV10). b) Overlay of UmpK in complex with the bi‐substrate inhibitor AP5U, (red, D. discoideum, PDB: 1UKE11), and in complex with ADP and CMP (orange, D. discoideum, PDB: 2UKD7). c) UmpK in complex with the TSA ADP:AlFx:CMP (D. discoideum, PDB: 3UKD7). In (a–c) arginine side‐chains are shown in yellow (numbering refers to UmpK from D. discoideum). d) Schematic representation of the reaction catalyzed by UmpK and the states studied here: nucleotide‐free (green), substrate/product‐bound (red), and the transition state (blue). e) AP5U binding to UmpK monitored by equilibrium displacement of fluorescent MANT‐ADP. Binding of AP5U (K D≤1.0 nM) generates a stable substrate/product‐like state. f) Nucleotide exchange kinetics measured by stopped flow. UmpK incubated with UMP and ADP in the presence of 0.5 mM AlFx (blue), 3 mM MgFx (grey) or in the absence of any fluoride (red) was mixed rapidly with the competing ligand MANT‐AP5A‐MANT. […] 3 Materials and Methods: 1. Mutagenesis, protein expression and purification: Arginine to lysine mutations were introduced into UmpK from Dictyostelium discoideum using the QuikChange® protocol. DNA sequencing was performed to verify the eight introduced mutations. Unlabeled [U-1 H,12C,14N] UmpK was expressed in LB medium, uniformly 15N-/ 13C-labeled [U-13C,15N] UmpK was expressed in M9 minimal medium using 2 g/L U-13C-glucose and 1 g/L 15NH4Cl as the sole carbon and nitrogen sources, respectively. Selectively labelled [13C,15N-Arg; U-12C,14N] UmpK and [13C,15N-Arg+Lys; U-12C,14N] UmpK with only (i) arginine residues or (ii) lysine and arginine residues isotopically labelled, respectively, were expressed in M9 minimal medium supplemented (i) 100 mg/L 15N-/ 13C-arginine or (ii) 100 mg/L 15N-/ 13C-arginine and 15N-/ 13C-lysine. All UmpK variants were purified as described previously using Blue Sepharose affinity chromatography and SourceQ anion exchange chromatography.

Experiment [3] has as its target T1, UmpK (UMP/CMP kinase). Description: biochemical. Details: fluorescence titration of nucleotide binding to UmpK (MANT-ADP fluorescence / displacement). The note with it: Mg-free. From the text: First, we defined and characterized stable states along the reaction coordinate (Supporting Information). One reference state is nucleotide‐free (apo) UmpK (Figure 1 a), where the catalytic side‐chains are expected to be very flexible because of the absence of any ligand, thus giving an indication of the upper limit of conformational entropy. An ideal reference for a substrate/product‐bound state is provided by UmpK in complex with the bi‐substrate inhibitor AP5U (Supporting Information; Figure 1 b), where a phosphate group covalently links ATP and UMP such that nucleotide‐like binding occurs but without turnover.11 The overall structure of UmpK in complex with AP5U is essentially identical to other nucleotide‐bound structures available (Figure 1 b). Despite minor differences in the lid loop conformation and the aliphatic part of the R137 side‐chain, the position of the central guanidino groups is nearly identical. […] The transition state of the phosphoryl transfer reaction is well‐represented by UmpK in complex with the TSA formed by ADP, UMP/CMP and an AlFx molecule that mimics the phosphoryl group being transferred (Figure 1 c).7 To further confirm the formation of a stable complex that captures the transition state structure, we performed functional studies including nucleotide exchange kinetics measurements in the presence and absence of aluminium fluoride (Figures 1 f and S1/S2, Table S1).  Figure 1 a) Nucleotide‐free UmpK (H. sapiens, PDB: 1TEV10). b) Overlay of UmpK in complex with the bi‐substrate inhibitor AP5U, (red, D. discoideum, PDB: 1UKE11), and in complex with ADP and CMP (orange, D. discoideum, PDB: 2UKD7). c) UmpK in complex with the TSA ADP:AlFx:CMP (D. discoideum, PDB: 3UKD7). In (a–c) arginine side‐chains are shown in yellow (numbering refers to UmpK from D. discoideum). d) Schematic representation of the reaction catalyzed by UmpK and the states studied here: nucleotide‐free (green), substrate/product‐bound (red), and the transition state (blue). e) AP5U binding to UmpK monitored by equilibrium displacement of fluorescent MANT‐ADP. Binding of AP5U (K D≤1.0 nM) generates a stable substrate/product‐like state. f) Nucleotide exchange kinetics measured by stopped flow. UmpK incubated with UMP and ADP in the presence of 0.5 mM AlFx (blue), 3 mM MgFx (grey) or in the absence of any fluoride (red) was mixed rapidly with the competing ligand MANT‐AP5A‐MANT.

Setting [4] is: 5 mM MgCl2, alone, read-out: UmpK wild-type (5 mM MgCl2) Alone.
[5] abbreviates: with CMP, 5 mM MgCl2, 250 uM second nucleotide present, read-out: UmpK wild-type (5 mM MgCl2) in the presence of 250 uM second nucleotide.
[6] abbreviates: with ADP, 5 mM MgCl2, 250 uM second nucleotide present, read-out: UmpK wild-type (5 mM MgCl2) in the presence of 250 uM second nucleotide.
Setting [7] is: with 250 uM ADP, read-out: wild-type (Mg-free) in presence of 250 uM ADP.

T1 sequence (P20425 whole entry): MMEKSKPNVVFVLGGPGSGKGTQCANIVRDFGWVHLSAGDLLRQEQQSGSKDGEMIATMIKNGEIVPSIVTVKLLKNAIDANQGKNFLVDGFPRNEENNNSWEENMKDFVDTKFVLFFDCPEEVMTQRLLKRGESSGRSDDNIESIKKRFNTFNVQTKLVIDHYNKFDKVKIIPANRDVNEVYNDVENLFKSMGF

`Nc1ncnc2c1ncn2[C@@H]1O[C@H](COP(=O)(O)OP(=O)(O)O)[C@@H](O)[C@H]1O` [ADP]: on UmpK (UMP/CMP kinase) [1] (UMP present), the k fast is on record as ~ 60 s^-1. In addition, the Kd was 80 ± 2 µM at UmpK (UMP/CMP kinase) [2] (setting [4]); 10 ± 1 µM on UmpK (UMP/CMP kinase) [2] (setting [5]); 49 ± 0.5 µM on UmpK (UMP/CMP kinase) [3] (with 250 uM CDP, read-out: wild-type (Mg-free) in presence of 250 uM CDP).

As for `Nc1ncnc2c1ncn2[C@@H]1O[C@H](COP(=O)(O)OP(=O)(O)OP(=O)(O)O)[C@@H](O)[C@H]1O` [ATP], the Kd amounted to 51 ± 2 µM on UmpK (UMP/CMP kinase) [2] (setting [4]); 7.3 ± 0.4 µM on UmpK (UMP/CMP kinase) [2] (setting [5]); 68 ± 3 µM at UmpK (UMP/CMP kinase) [3] (with 250 uM CMP, read-out: wild-type (Mg-free) in presence of 250 uM CMP).

In the case of `Nc1ccn([C@@H]2O[C@H](COP(=O)(O)OP(=O)(O)O)[C@@H](O)[C@H]2O)c(=O)n1` [CDP], the Kd on UmpK (UMP/CMP kinase) [2] (setting [4]) is 66 ± 11 µM; on UmpK (UMP/CMP kinase) [2] (setting [6]) it was 17 ± 3 µM; at UmpK (UMP/CMP kinase) [3] (setting [7]), 64 ± 6 µM.

In the case of `Nc1ccn([C@@H]2O[C@H](COP(=O)(O)O)[C@@H](O)[C@H]2O)c(=O)n1` [CMP], the Kd on UmpK (UMP/CMP kinase) [2] (setting [4]) came to 77 ± 11 µM; at UmpK (UMP/CMP kinase) [2] (setting [6]) it was 23 ± 3 µM; at UmpK (UMP/CMP kinase) [3] (setting [7]), 205 ± 20 µM.

As for `O=c1ccn([C@@H]2O[C@H](COP(=O)(O)OP(=O)(O)O)[C@@H](O)[C@H]2O)c(=O)[nH]1` [UDP], the Kd at UmpK (UMP/CMP kinase) [2] (setting [4]) was determined as 600 ± 70 µM; on UmpK (UMP/CMP kinase) [2] (setting [6]) it was 60 ± 14 µM; on UmpK (UMP/CMP kinase) [3] (setting [7]), 400 ± 45 µM.

As to `O=c1ccn([C@@H]2O[C@H](COP(=O)(O)O)[C@@H](O)[C@H]2O)c(=O)[nH]1` [UMP], the k fast at UmpK (UMP/CMP kinase) [1] (ADP present) is ~ 60 s^-1.
